Experimental data as given in ChEMBL document CHEMBL4680263, “Identification of benzothiazinones containing 2-benzyl-2,7-diazaspiro[3.5]nonane moieties as new antitubercular agents” (Eur J Med Chem, 2020).
In brackets after ≈: the same amount, converted by molar mass.

Tests used:
[1] = tested on: Mycobacterium tuberculosis; experiment: Antimycobacterial activity against Mycobacterium tuberculosis H37Rv ATCC 27294 assessed as inhibition of bacterial growth incubated for 7 days by MABA assay; type: functional; details: H37Rv ATCC 27294, 168 h, time 7 day
[2] = Acute toxicity in BALB/c mouse assessed as mouse survival at 2 g/kg, po observed continuously for 4 hrs and each hr for next 24 hrs and at 8 hrs interval for following 7 days; type: organism-based; details: in vivo, 2000 mg/kg, 168 h, time 7 day
[3] = AUC (0 to infinity) in BALB/c mouse at 2.5 mg/kg, iv measured upto 24 hrs by HPLC analysis; type: ADME, organism-based; parameters: route intravenous, dose 2.5 mg/kg, time <=24; details: in vivo
[4] = AUC (0 to infinity) in BALB/c mouse at 12.5 mg/kg, po measured upto 24 hrs by HPLC analysis; type: ADME, organism-based; parameters: route oral, dose 12.5 mg/kg, time <=24; details: in vivo
[5] = Cmax in BALB/c mouse at 2.5 mg/kg, iv measured upto 24 hrs by HPLC analysis; type: ADME, organism-based; parameters: route intravenous, dose 2.5 mg/kg, time <=24; details: in vivo
[6] = Cytotoxicity against African green monkey Vero cells; type: cell-based; details: chlorocebus sabaeus
[7] = Half life in BALB/c mouse at 12.5 mg/kg, po measured upto 24 hrs by HPLC analysis; type: ADME, organism-based; details: in vivo
[8] = Half life in BALB/c mouse at 2.5 mg/kg, iv measured upto 24 hrs by HPLC analysis; type: ADME, organism-based; details: in vivo
[9] = Oral bioavailability in BALB/c mouse at 12.5 mg/kg measured upto 24 hrs by HPLC analysis; type: ADME, organism-based; details: in vivo; for bioavailability: BALB/c
[10] = Tmax in BALB/c mouse at 12.5 mg/kg, po measured upto 24 hrs by HPLC analysis; type: ADME, organism-based; details: in vivo
[11] = Cmax in BALB/c mouse at 12.5 mg/kg, po measured upto 24 hrs by HPLC analysis; type: ADME, organism-based; parameters: route oral, dose 12.5 mg/kg, time <=24; details: in vivo
[12] = tested on: Mycobacterium tuberculosis; experiment: Antimycobacterial activity against Mycobacterium tuberculosis H37Rv infected in BALB/c mouse assessed as reduction in colony forming unit in lung at 25 mg/kg, po administered once daily for 5 days a week for 3 weeks (reference value: 5.35 +/- 0.17 log10CFU); type: functional

Question: For `CC(c1ccc(Cl)cc1)N1CC2(CCN(c3nc(=O)c4cc(C(F)(F)F)cc([N+](=O)[O-])c4s3)CC2)C1` (centres undefined), which MIC [1] is on record?
Answer: < 0.016 µg/mL

Question: With `CC(c1ccc(Br)cc1)N1CC2(CCN(c3nc(=O)c4cc(C(F)(F)F)cc([N+](=O)[O-])c4s3)CC2)C1` (centres undefined) as the compound, how does the MIC [1] read?
Answer: < 0.016 µg/mL

Question: With `CC(c1cc(F)cc(F)c1)N1CC2(CCN(c3nc(=O)c4cc(C(F)(F)F)cc([N+](=O)[O-])c4s3)CC2)C1` (centres undefined) as the compound, how does the Activity [2] read?
Answer: Non-Toxic

Question: What about the AUC(0-inf) [3] of the same compound?
Answer: 812 ng·h/mL

Question: And the AUC(0-inf) [4]?
Answer: 609 ng·h/mL

Question: And the Cmax [5]?
Answer: 723 ng/mL

Question: What about the CC50 [6] of the same compound?
Answer: > 64 µg/mL

Question: And the half-life [7]?
Answer: 3.02 h

Question: And the half-life [8]?
Answer: 3.25 h

Question: What about the bioavailability [9] of the same compound?
Answer: 15%

Question: And the Tmax [10]?
Answer: 0.25 h

Question: And the Cmax [11]?
Answer: 286 ng/mL

Question: And the MIC [1]?
Answer: < 0.016 µg/mL

Question: And the Activity [12]?
Answer: >5 log10CFU

Question: For `O=c1nc(N2CCC3(CC2)CN(Cc2cc(F)cc(F)c2)C3)sc2c([N+](=O)[O-])cc(C(F)(F)F)cc12`, which MIC [1] is on record?
Answer: < 0.016 µg/mL

Question: With `CC(c1cccc(F)c1)N1CC2(CCN(c3nc(=O)c4cc(C(F)(F)F)cc([N+](=O)[O-])c4s3)CC2)C1` (centres undefined) as the compound, how does the MIC [1] read?
Answer: < 0.016 µg/mL

Question: For `O=c1nc(N2CCC3(CC2)CN(Cc2ccc(C(F)(F)F)cc2)C3)sc2c([N+](=O)[O-])cc(C(F)(F)F)cc12`, which Activity [2] is on record?
Answer: Toxic

Question: And the CC50 [6]?
Answer: > 64 µg/mL

Question: And the MIC [1]?
Answer: < 0.016 µg/mL

Question: Which MIC [1] does the source give for `CC(c1ccc(F)c(F)c1)N1CC2(CCN(c3nc(=O)c4cc(C(F)(F)F)cc([N+](=O)[O-])c4s3)CC2)C1` (centres undefined) here?
Answer: < 0.016 µg/mL

Question: For `CC(c1ccc(F)cc1)N1CC2(CCN(c3nc(=O)c4cc(C(F)(F)F)cc([N+](=O)[O-])c4s3)CC2)C1` (centres undefined), which MIC [1] is on record?
Answer: < 0.016 µg/mL

Question: Which Activity [2] does the source give for `CC(c1ccc(Cl)c(F)c1)N1CC2(CCN(c3nc(=O)c4cc(C(F)(F)F)cc([N+](=O)[O-])c4s3)CC2)C1` (centres undefined) here?
Answer: Non-Toxic

Question: And the AUC(0-inf) [3]?
Answer: 1170 ng·h/mL

Question: And the AUC(0-inf) [4]?
Answer: 1940 ng·h/mL

Question: What about the Cmax [5] of the same compound?
Answer: 709 ng/mL

Question: And the CC50 [6]?
Answer: > 64 µg/mL

Question: What about the half-life [7] of the same compound?
Answer: 10.1 h

Question: And the half-life [8]?
Answer: 7.5 h

Question: What about the bioavailability [9] of the same compound?
Answer: 33%

Question: And the Tmax [10]?
Answer: 0.5 h

Question: And the Cmax [11]?
Answer: 313 ng/mL

Question: What about the MIC [1] of the same compound?
Answer: < 0.016 µg/mL

Question: What about the Activity [12] of the same compound?
Answer: >5 log10CFU

Question: Which results are given for `CC(c1cc(F)c(F)c(F)c1)N1CC2(CCN(c3nc(=O)c4cc(C(F)(F)F)cc([N+](=O)[O-])c4s3)CC2)C1` (centres undefined)?
Answer: Activity [2]: Non-Toxic; AUC(0-inf) [3]: 498 ng·h/mL; AUC(0-inf) [4]: 455 ng·h/mL; Cmax [5]: 463 ng/mL; CC50 [6]: > 64 µg/mL; half-life [7]: 2.08 h; half-life [8]: 1.86 h; bioavailability [9]: 18.3%; Tmax [10]: 0.25 h; Cmax [11]: 240 ng/mL; MIC [1]: < 0.016 µg/mL; Activity [12]: >5 log10CFU

Question: With `O=c1nc(N2CCC3(CC2)CN(Cc2ccc(F)cc2)C3)sc2c([N+](=O)[O-])cc(C(F)(F)F)cc12` as the compound, how does the MIC [1] read?
Answer: < 0.016 µg/mL

Question: Which MIC [1] does the source give for `O=c1nc(N2CCC3(CC2)CN(Cc2cccc(F)c2)C3)sc2c([N+](=O)[O-])cc(C(F)(F)F)cc12` here?
Answer: < 0.016 µg/mL

Question: For `CC(c1ccc(OC(F)(F)F)cc1)N1CCC2(CC1)CN(c1nc(=O)c3cc(C(F)(F)F)cc([N+](=O)[O-])c3s1)C2` (centres undefined), which Activity [2] is on record?
Answer: Non-Toxic

Question: What about the CC50 [6] of the same compound?
Answer: > 64 µg/mL

Question: And the MIC [1]?
Answer: < 0.016 µg/mL

Question: And the Activity [12]?
Answer: 4.05 log10CFU

Question: With `O=c1nc(N2CCC3(CC2)CN(C(c2ccc(F)cc2)c2ccc(F)cc2)C3)sc2c([N+](=O)[O-])cc(C(F)(F)F)cc12` as the compound, how does the MIC [1] read?
Answer: 0.037 µg/mL (≈ 0.0614 µM)

Question: With `CC(c1ccc(F)c(Cl)c1)N1CC2(CCN(c3nc(=O)c4cc(C(F)(F)F)cc([N+](=O)[O-])c4s3)CC2)C1` (centres undefined) as the compound, how does the MIC [1] read?
Answer: < 0.016 µg/mL

Question: Which results are given for `CC(c1ccc(OC(F)(F)F)cc1)N1CC2(CCN(c3nc(=O)c4cc(C(F)(F)F)cc([N+](=O)[O-])c4s3)CC2)C1` (centres undefined)?
Answer: Activity [2]: Non-Toxic; AUC(0-inf) [3]: 2990 ng·h/mL; AUC(0-inf) [4]: 3620 ng·h/mL; Cmax [5]: 1640 ng/mL; CC50 [6]: > 64 µg/mL; half-life [7]: 6 h; half-life [8]: 8.51 h; bioavailability [9]: 24.2%; Tmax [10]: 0.25 h; Cmax [11]: 915 ng/mL; MIC [1]: < 0.016 µg/mL; Activity [12]: >5 log10CFU

Question: For `O=c1nc(N2CCC3(CC2)CN(Cc2ccc(OC(F)(F)F)cc2)C3)sc2c([N+](=O)[O-])cc(C(F)(F)F)cc12`, which MIC [1] is on record?
Answer: < 0.016 µg/mL

Question: With `CC(c1ccc(F)cc1F)N1CC2(CCN(c3nc(=O)c4cc(C(F)(F)F)cc([N+](=O)[O-])c4s3)CC2)C1` (centres undefined) as the compound, how does the MIC [1] read?
Answer: < 0.016 µg/mL

Question: What does the source list for `CC(c1ccc(C(F)(F)F)cc1)N1CC2(CCN(c3nc(=O)c4cc(C(F)(F)F)cc([N+](=O)[O-])c4s3)CC2)C1` (centres undefined)?
Answer: Activity [2]: Non-Toxic; AUC(0-inf) [3]: 2650 ng·h/mL; AUC(0-inf) [4]: 5500 ng·h/mL; Cmax [5]: 1390 ng/mL; CC50 [6]: > 64 µg/mL; half-life [7]: 6.69 h; half-life [8]: 9.29 h; bioavailability [9]: 41.5%; Tmax [10]: 0.25 h; Cmax [11]: 1240 ng/mL; MIC [1]: < 0.016 µg/mL; Activity [12]: >5 log10CFU

Question: For `O=c1nc(N2CCC3(CC2)CN(Cc2ccc(Br)cc2)C3)sc2c([N+](=O)[O-])cc(C(F)(F)F)cc12`, which MIC [1] is on record?
Answer: < 0.016 µg/mL

Question: With `NNC(=O)c1ccncc1` [ISONIAZID] as the compound, how does the MIC [1] read?
Answer: 0.038 µg/mL (≈ 0.277 µM)

Question: What about the Activity [12] of the same compound?
Answer: >5 log10CFU

Question: Which AUC(0-inf) [3] does the source give for `O=c1nc(N2CCN(CC3CCCCC3)CC2)sc2c([N+](=O)[O-])cc(C(F)(F)F)cc12` [MACOZINONE] here?
Answer: 1540 ng·h/mL

Question: What about the AUC(0-inf) [4] of the same compound?
Answer: 912 ng·h/mL

Question: What about the Cmax [5] of the same compound?
Answer: 1840 ng/mL

Question: What about the CC50 [6] of the same compound?
Answer: > 64 µg/mL

Question: What about the half-life [7] of the same compound?
Answer: 5.07 h

Question: What about the half-life [8] of the same compound?
Answer: 5.14 h

Question: What about the F ([9]; 12.5 mg/kg, 24 h) of the same compound?
Answer: 11.8%

Question: What about the Tmax [10] of the same compound?
Answer: 0.25 h

Question: And the Cmax [11]?
Answer: 734 ng/mL

Question: And the MIC [1]?
Answer: < 0.016 µg/mL

Question: And the Activity [12]?
Answer: >5 log10CFU

Question: With `CO[C@H]1/C=C/O[C@@]2(C)Oc3c(C)c(O)c4c(O)c(c(/C=N/N5CCN(C)CC5)c(O)c4c3C2=O)NC(=O)/C(C)=C\C=C\[C@H](C)[C@H](O)[C@@H](C)[C@@H](O)[C@@H](C)[C@H](OC(C)=O)[C@@H]1C` [RIFAMPIN] as the compound, how does the MIC [1] read?
Answer: 0.037 µg/mL (≈ 0.045 µM)
